Assay results: ChEMBL document CHEMBL1781959, “Synthesis and in vitro antitumor activity of substituted quinazoline and quinoxaline derivatives: search for anticancer agent” (Eur J Med Chem, 2011)

Each compound was assayed on SNB-75 (assay: Anticancer activity against human SNB75 cells assessed as cell growth promotion at 10^-5 M after 48 hrs by SRB assay relative to control).
Type: functional

Structure (SMILES)	Activity [%]
N#Cc1ccc(/C=C/c2ccc(NC(=O)c3ccccc3NC(=O)c3ccco3)cc2)cc1	80
COc1cc(/C=C/c2ccc(NC(=O)c3ccccc3NC(=O)c3ccccc3)cc2)ccc1O	85.88
O=C(Nc1ccccc1C(=O)Nc1ccc(/C=C/C=C/c2ccccc2)cc1)c1ccccc1	82.74

Each compound was assayed on SK-MEL-2 (assay: Anticancer activity against human SK-MEL-2 cells assessed as cell growth promotion at 10^-5 M after 48 hrs by SRB assay relative to control).
Type: functional

Structure (SMILES)	Activity [%]
N#Cc1ccc(/C=C/c2ccc(NC(=O)c3ccccc3NC(=O)c3ccco3)cc2)cc1	116
COc1cc(/C=C/c2ccc(NC(=O)c3ccccc3NC(=O)c3ccccc3)cc2)ccc1O	104
O=C(Nc1ccccc1C(=O)Nc1ccc(/C=C/C=C/c2ccccc2)cc1)c1ccccc1	96.46

These compounds were tested on A549 (assay: Anticancer activity against human A549 cells assessed as cell growth promotion at 10^-5 M after 48 hrs by SRB assay relative to control).
Type: functional

Structure (SMILES)	Activity [%]
N#Cc1ccc(/C=C/c2ccc(NC(=O)c3ccccc3NC(=O)c3ccco3)cc2)cc1	101
COc1cc(/C=C/c2ccc(NC(=O)c3ccccc3NC(=O)c3ccccc3)cc2)ccc1O	99.78
O=C(Nc1ccccc1C(=O)Nc1ccc(/C=C/C=C/c2ccccc2)cc1)c1ccccc1	91.49

Each compound was assayed on ACHN (assay: Anticancer activity against human ACHN cells assessed as cell growth promotion at 10^-5 M after 48 hrs by SRB assay relative to control).
Type: functional

Structure (SMILES)	Activity [%]
N#Cc1ccc(/C=C/c2ccc(NC(=O)c3ccccc3NC(=O)c3ccco3)cc2)cc1	104
COc1cc(/C=C/c2ccc(NC(=O)c3ccccc3NC(=O)c3ccccc3)cc2)ccc1O	97.71
O=C(Nc1ccccc1C(=O)Nc1ccc(/C=C/C=C/c2ccccc2)cc1)c1ccccc1	87.29

What follows are compounds tested on SF-295 (assay: Anticancer activity against human SF295 cells assessed as cell growth promotion at 10^-5 M after 48 hrs by SRB assay relative to control).
Type: functional

Structure (SMILES)	Activity [%]
N#Cc1ccc(/C=C/c2ccc(NC(=O)c3ccccc3NC(=O)c3ccco3)cc2)cc1	114
COc1cc(/C=C/c2ccc(NC(=O)c3ccccc3NC(=O)c3ccccc3)cc2)ccc1O	162
O=C(Nc1ccccc1C(=O)Nc1ccc(/C=C/C=C/c2ccccc2)cc1)c1ccccc1	58.93

The compounds below were run on HCC 2998 (assay: Anticancer activity against human HCC2998 cells assessed as cell growth promotion at 10^-5 M after 48 hrs by SRB assay relative to control).
Type: functional

Structure (SMILES)	Activity [%]
N#Cc1ccc(/C=C/c2ccc(NC(=O)c3ccccc3NC(=O)c3ccco3)cc2)cc1	105
COc1cc(/C=C/c2ccc(NC(=O)c3ccccc3NC(=O)c3ccccc3)cc2)ccc1O	99.7
O=C(Nc1ccccc1C(=O)Nc1ccc(/C=C/C=C/c2ccccc2)cc1)c1ccccc1	93.69

These compounds were tested on TK-10 (assay: Anticancer activity against human TK10 cells assessed as cell growth promotion at 10^-5 M after 48 hrs by SRB assay relative to control).
Type: functional

Structure (SMILES)	Activity [%]
N#Cc1ccc(/C=C/c2ccc(NC(=O)c3ccccc3NC(=O)c3ccco3)cc2)cc1	126
COc1cc(/C=C/c2ccc(NC(=O)c3ccccc3NC(=O)c3ccccc3)cc2)ccc1O	97.64
O=C(Nc1ccccc1C(=O)Nc1ccc(/C=C/C=C/c2ccccc2)cc1)c1ccccc1	114

Each compound was assayed on SK-MEL-28 (assay: Anticancer activity against human SK-MEL-28 cells assessed as cell growth promotion at 10^-5 M after 48 hrs by SRB assay relative to control).
Type: functional

Structure (SMILES)	Activity [%]
N#Cc1ccc(/C=C/c2ccc(NC(=O)c3ccccc3NC(=O)c3ccco3)cc2)cc1	113
COc1cc(/C=C/c2ccc(NC(=O)c3ccccc3NC(=O)c3ccccc3)cc2)ccc1O	115
O=C(Nc1ccccc1C(=O)Nc1ccc(/C=C/C=C/c2ccccc2)cc1)c1ccccc1	107

These compounds were tested on LOX IMVI (assay: Anticancer activity against human LOXIMVI cells assessed as cell growth promotion at 10^-5 M after 48 hrs by SRB assay relative to control).
Type: functional

Structure (SMILES)	Activity [%]
N#Cc1ccc(/C=C/c2ccc(NC(=O)c3ccccc3NC(=O)c3ccco3)cc2)cc1	109
COc1cc(/C=C/c2ccc(NC(=O)c3ccccc3NC(=O)c3ccccc3)cc2)ccc1O	92
O=C(Nc1ccccc1C(=O)Nc1ccc(/C=C/C=C/c2ccccc2)cc1)c1ccccc1	84.87

The compounds below were run on IGROV-1 (assay: Anticancer activity against human IGROV1 cells assessed as cell growth promotion at 10^-5 M after 48 hrs by SRB assay relative to control).
Type: functional

Structure (SMILES)	Activity [%]
N#Cc1ccc(/C=C/c2ccc(NC(=O)c3ccccc3NC(=O)c3ccco3)cc2)cc1	110
COc1cc(/C=C/c2ccc(NC(=O)c3ccccc3NC(=O)c3ccccc3)cc2)ccc1O	96.3
O=C(Nc1ccccc1C(=O)Nc1ccc(/C=C/C=C/c2ccccc2)cc1)c1ccccc1	78.34

What follows are compounds tested on NCI-H522 (assay: Anticancer activity against human NCI-H522 cells assessed as cell growth promotion at 10^-5 M after 48 hrs by SRB assay relative to control).
Type: functional

Structure (SMILES)	Activity [%]
N#Cc1ccc(/C=C/c2ccc(NC(=O)c3ccccc3NC(=O)c3ccco3)cc2)cc1	106
COc1cc(/C=C/c2ccc(NC(=O)c3ccccc3NC(=O)c3ccccc3)cc2)ccc1O	99.45
O=C(Nc1ccccc1C(=O)Nc1ccc(/C=C/C=C/c2ccccc2)cc1)c1ccccc1	70.1

The compounds below were run on COLO 205 (assay: Anticancer activity against human COLO205 cells assessed as cell growth promotion at 10^-5 M after 48 hrs by SRB assay relative to control).
Type: functional

Structure (SMILES)	Activity [%]
N#Cc1ccc(/C=C/c2ccc(NC(=O)c3ccccc3NC(=O)c3ccco3)cc2)cc1	124
COc1cc(/C=C/c2ccc(NC(=O)c3ccccc3NC(=O)c3ccccc3)cc2)ccc1O	115
O=C(Nc1ccccc1C(=O)Nc1ccc(/C=C/C=C/c2ccccc2)cc1)c1ccccc1	121

What follows are compounds tested on MCF7 (assay: Anticancer activity against human MCF7 cells assessed as cell growth promotion at 10^-5 M after 48 hrs by SRB assay relative to control).
Type: functional

Structure (SMILES)	Activity [%]
N#Cc1ccc(/C=C/c2ccc(NC(=O)c3ccccc3NC(=O)c3ccco3)cc2)cc1	98.4
COc1cc(/C=C/c2ccc(NC(=O)c3ccccc3NC(=O)c3ccccc3)cc2)ccc1O	96.33
O=C(Nc1ccccc1C(=O)Nc1ccc(/C=C/C=C/c2ccccc2)cc1)c1ccccc1	100

These compounds were tested on PC-3 (assay: Anticancer activity against human PC3 cells assessed as cell growth promotion at 10^-5 M after 48 hrs by SRB assay relative to control).
Type: functional

Structure (SMILES)	Activity [%]
N#Cc1ccc(/C=C/c2ccc(NC(=O)c3ccccc3NC(=O)c3ccco3)cc2)cc1	109
COc1cc(/C=C/c2ccc(NC(=O)c3ccccc3NC(=O)c3ccccc3)cc2)ccc1O	94.13
O=C(Nc1ccccc1C(=O)Nc1ccc(/C=C/C=C/c2ccccc2)cc1)c1ccccc1	75.75

These compounds were tested on NCI-H226 (assay: Anticancer activity against human NCI-H226 cells assessed as cell growth promotion at 10^-5 M after 48 hrs by SRB assay relative to control).
Type: functional

Structure (SMILES)	Activity [%]
N#Cc1ccc(/C=C/c2ccc(NC(=O)c3ccccc3NC(=O)c3ccco3)cc2)cc1	107
COc1cc(/C=C/c2ccc(NC(=O)c3ccccc3NC(=O)c3ccccc3)cc2)ccc1O	95.46
O=C(Nc1ccccc1C(=O)Nc1ccc(/C=C/C=C/c2ccccc2)cc1)c1ccccc1	84.69

What follows are compounds tested on OVCAR-8 (assay: Anticancer activity against human OVCAR8 cells assessed as cell growth promotion at 10^-5 M after 48 hrs by SRB assay relative to control).
Type: functional

Structure (SMILES)	Activity [%]
N#Cc1ccc(/C=C/c2ccc(NC(=O)c3ccccc3NC(=O)c3ccco3)cc2)cc1	106
COc1cc(/C=C/c2ccc(NC(=O)c3ccccc3NC(=O)c3ccccc3)cc2)ccc1O	105
O=C(Nc1ccccc1C(=O)Nc1ccc(/C=C/C=C/c2ccccc2)cc1)c1ccccc1	104

Each compound was assayed on DU-145 (assay: Anticancer activity against human DU145 cells assessed as cell growth promotion at 10^-5 M after 48 hrs by SRB assay relative to control).
Type: functional

Structure (SMILES)	Activity [%]
N#Cc1ccc(/C=C/c2ccc(NC(=O)c3ccccc3NC(=O)c3ccco3)cc2)cc1	104
COc1cc(/C=C/c2ccc(NC(=O)c3ccccc3NC(=O)c3ccccc3)cc2)ccc1O	108
O=C(Nc1ccccc1C(=O)Nc1ccc(/C=C/C=C/c2ccccc2)cc1)c1ccccc1	111

What follows are compounds tested on BT-549 (assay: Anticancer activity against human BT549 cells assessed as cell growth promotion at 10^-5 M after 48 hrs by SRB assay relative to control).
Type: functional

Structure (SMILES)	Activity [%]
N#Cc1ccc(/C=C/c2ccc(NC(=O)c3ccccc3NC(=O)c3ccco3)cc2)cc1	109
COc1cc(/C=C/c2ccc(NC(=O)c3ccccc3NC(=O)c3ccccc3)cc2)ccc1O	95.53
O=C(Nc1ccccc1C(=O)Nc1ccc(/C=C/C=C/c2ccccc2)cc1)c1ccccc1	86.19

Each compound was assayed on MDA-MB-468 (assay: Anticancer activity against human MDA-MB-468 cells assessed as cell growth promotion at 10^-5 M after 48 hrs by SRB assay relative to control).
Type: functional

Structure (SMILES)	Activity [%]
N#Cc1ccc(/C=C/c2ccc(NC(=O)c3ccccc3NC(=O)c3ccco3)cc2)cc1	108
COc1cc(/C=C/c2ccc(NC(=O)c3ccccc3NC(=O)c3ccccc3)cc2)ccc1O	95.39
O=C(Nc1ccccc1C(=O)Nc1ccc(/C=C/C=C/c2ccccc2)cc1)c1ccccc1	81.99

These compounds were tested on OVCAR-4 (assay: Anticancer activity against human OVCAR4 cells assessed as cell growth promotion at 10^-5 M after 48 hrs by SRB assay relative to control).
Type: functional

Structure (SMILES)	Activity [%]
N#Cc1ccc(/C=C/c2ccc(NC(=O)c3ccccc3NC(=O)c3ccco3)cc2)cc1	100

What follows are compounds tested on SF-539 (assay: Anticancer activity against human SF539 cells assessed as cell growth promotion at 10^-5 M after 48 hrs by SRB assay relative to control).
Type: functional

Structure (SMILES)	Activity [%]
N#Cc1ccc(/C=C/c2ccc(NC(=O)c3ccccc3NC(=O)c3ccco3)cc2)cc1	102
COc1cc(/C=C/c2ccc(NC(=O)c3ccccc3NC(=O)c3ccccc3)cc2)ccc1O	110
O=C(Nc1ccccc1C(=O)Nc1ccc(/C=C/C=C/c2ccccc2)cc1)c1ccccc1	102
